Measured values: the supplement of paper PMC10307832

Columns and labels:
Experiment in all cases: relative viability (nuclei count vs DMSO), 5 days (fraction); higher = more cells survive
IPA-3 = compound: C1=CC=C2C(=C1)C=CC(=C2SSC3=C(C=CC4=CC=CC=C43)O)O [IPA-3]
In short: (§1)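 Lung cancer cell lines were seeded into 1536-well plates, kept overnight at 37 °C and pinned with five library-drug doses (not always all listed) spaced by √10. After 5 days, nuclei were Hoechst-stained, imaged at 4× and counted with MetaXpress. Viability is treated-well nuclei over vehicle-well nuclei, taken as a median across plates. Plates needed control CV below 25% and at least one doubling.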

Doramapimod = compound: Cc1ccc(-n2nc(C(C)(C)C)cc2NC(=O)Nc2ccc(OCCN3CCOCC3)c3ccccc23)cc1 [Doramapimod]
In short: as §1

RAF265 = compound: Cn1c(Nc2ccc(C(F)(F)F)cc2)nc2cc(Oc3ccnc(-c4ncc(C(F)(F)F)[nH]4)c3)ccc21 [RAF265]
In short: as §1

Doramapimod + Crizotinib = compound: Cc1ccc(-n2nc(C(C)(C)C)cc2NC(=O)Nc2ccc(OCCN3CCOCC3)c3ccccc23)cc1 [Doramapimod] + C[C@@H](Oc1cc(-c2cnn(C3CCNCC3)c2)cnc1N)c1c(Cl)ccc(F)c1Cl [Crizotinib] (partner 1 µM)
In short: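 Dosing by pin tool came one day after lung cancer cell lines were seeded in 1536-well plates, using either one drug or a fixed anchor-drug dose plus five library-drug doses (not always all listed) in √10 steps. After 5 days, nuclei were counted on 4× images. Relative viability is treated-well nuclei count divided by vehicle-well nuclei count, and values are medians of duplicate plates.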

Row | Cell Line | relative viability (IPA-3; 0.2 µM) | relative viability (IPA-3; 0.6325 µM) | relative viability (IPA-3; 2 µM) | relative viability (IPA-3; 6.325 µM) | relative viability (IPA-3; 20 µM) | relative viability (Doramapimod; 0.02 µM) | relative viability (Doramapimod; 0.06325 µM) | relative viability (Doramapimod; 0.2 µM) | relative viability (Doramapimod; 0.6325 µM) | relative viability (Doramapimod; 2 µM) | relative viability (RAF265; 0.01 µM) | relative viability (RAF265; 0.03162 µM) | relative viability (RAF265; 0.1 µM) | relative viability (RAF265; 0.3162 µM) | relative viability (RAF265; 1 µM) | relative viability (Doramapimod + Crizotinib; first compound 0.02 µM) | relative viability (Doramapimod + Crizotinib; first compound 0.06325 µM) | relative viability (Doramapimod + Crizotinib; first compound 0.2 µM) | relative viability (Doramapimod + Crizotinib; first compound 0.6325 µM) | relative viability (Doramapimod + Crizotinib; first compound 2 µM)
1 | NCI-H2228 | 1.44 | 0.864 | 1.04 | 1.05 | 1.02 | 1.13 | 0.988 | 1.02 | 1.07 | 0.795 | 0.967 | 0.89 | 0.926 | 0.498 | 0.309 | 0.465 | 0.385 | 0.425 | 0.546 | 0.44
2 | NCI-H2347 | 1.21 | 0.962 | 1 | 1.01 | 1.1 | 1.05 | 0.973 | 1.01 | 0.964 | 0.959 | 1.16 | 0.975 | 0.984 | 0.822 | 0.528 | 0.789 | 0.568 | 0.745 | 0.762 | 0.644
3 | NCI-H2405 | 1.06 | 0.994 | 1.03 | 1.02 | 1.06 | 1.02 | 1.03 | 0.973 | 1.07 | 0.914 | 1.04 | 0.976 | 1 | 0.871 | 0.597 | 0.822 | 0.826 | 0.877 | 0.996 | 0.798
4 | NCI-H3122 | 1.02 | 0.98 | 0.981 | 1.04 | 0.999 | 0.995 | 1 | 0.995 | 0.989 | 1 | 1.02 | 1.1 | 1.05 | 0.885 | 0.943 | 0.268 | 0.267 | 0.223 | 0.256 | 0.266
5 | PC-3 [JPC-3] | 1.09 | 1.07 | 1.01 | 0.96 | 1 | 1.15 | 1.11 | 1.1 | 1.13 | 0.904 | 1.07 | 1 | 1.12 | 0.488 | 0.743 | 1 | 1 | 1.06 | 1.08 | 0.955
6 | PC-14 | 1.16 | 0.963 | 0.936 | 0.898 | 1.09 | 1.06 | 0.998 | 0.968 | 1.14 | 0.933 | 1.02 | 0.967 | 1.1 |  | 0.845 | 0.896 | 0.913 | 0.906 | 0.855 | 0.853
7 | RERF-LC-KJ | 1.14 | 0.943 | 0.946 | 0.991 | 1.07 | 1.09 | 1.03 | 1.07 | 1.02 | 0.999 | 1.03 | 0.974 | 0.987 | 0.791 | 0.715 | 0.88 | 0.888 | 0.826 | 0.789 | 0.823
8 | SK-LU-1 | 1.35 | 0.981 | 1.08 | 0.985 | 1.16 | 1.02 | 1.07 | 1.11 | 1.14 | 1.12 | 1.1 | 0.893 | 0.858 | 0.56 | 0.494 | 0.915 | 0.929 | 0.909 | 0.83 | 0.92
9 | SK-MES-1 | 1.08 | 0.97 | 1.07 | 0.923 | 1.02 | 1.01 | 0.934 | 0.95 | 1.05 | 0.926 | 1.03 | 0.805 | 0.634 | 0.441 | 0.283 | 1.01 | 0.977 | 0.933 | 0.917 | 0.887
10 | SW 1573 | 1.13 | 0.919 | 1.01 | 0.94 | 0.696 | 0.946 | 0.9 | 0.844 | 0.952 | 0.838 | 1.18 | 0.89 | 0.955 | 0.98 | 0.573 | 0.827 | 0.613 | 0.646 | 0.75 | 0.743
